The text below walks through data of patent US8598128B2, “Fructosylated puerarin, and preparation method and use thereof” (priority 2010, dated 2013).

In brackets after ≈: the same amount, converted by molar mass.

Usually solubility stands for the concentration that dissolves in the medium under given conditions. Read a high solubility as much dissolved substance. For orientation: MRT inf means the average time that molecules of a dose stay in the body. A word on the MRT last: it is a mean duration of stay, worked out from the concentration-time curve. Broadly, the clearance is the rate of elimination divided by the concentration. A lower clearance goes with a low capacity for elimination. The half-life is the time in which the quantity being followed falls by half.

The conditions of data set [1]: cited from earlier work; for water solubility compared with puerarin: literature.
For data set [2] the following is noted: literature; cited from earlier work.
Data set [3] concerns human chronmyelogenors leukemia cell strain K562. Kind of data set: K562 cell toxicity test (MTT). The class given is cell-based. The conditions noted are these: 48 h; for OD value: MTT 490 nm. The procedure: K-562 cells were cultured in an incubator at 37° C. with 5% CO2 saturated humidity in the RPMI-1640 complete culture medium containing inactivated calf serum with volume fraction of 10%, 100 U penicillin and streptomycin. […] For each drug concentration, 6 complex cases were provided. Put back the culture plate into the cell incubator, after 48 h, add 20 μL MTT (5 mg/mL) solution and continue to incubate it in the incubator for 4 h, then each case was added with triple liquid 100 μL, put it overnight to allow the crystal to fully dissolve. Vibrate it with oscillator for 20 min and determine the light absorption at 490 nm with a fully automatic ELISA instrument, and calculate the average suppression rate, suppression rate (%)=(control group A490−test group A490)/control group A490), the experiment was repeated three times. Relevant analysis and Student t tests in Microsoft Excel 2003 were used, and data are presented in X±SD.

A further data set in a line: physchem. The conditions noted are these: 25° C.
The test system of data set [4] is myocardio ischemia mice. Briefly: Heart rate in pituitrin acute myocardial ischemia model. Type of data set: in vivo, Sprague-Dawley mice (SD mice). To be noted: 50 mg/kg. The text has this:
(§1) Embodiment 6: […] Pituitrin injection was purchased from Nanjing Xinbai Pharmaceutical Co., Ltd., normal saline injection from Nanjing Xiaoying Pharmaceutical Co., Ltd., and DMSO, PG, and anhydrous ethanol were of chromatographic class. […] The data were presented with, and tested with t. P<0.05 indicates substantial difference, P<0.01 indicates very substantial difference; and P<0.001 indicates extremely substantial difference.

Data set [5] deals with myocardio ischemia mice. Kind of data set: T wave amplitude variation in pituitrin acute myocardial ischemia model. The class given is in vivo, Sprague-Dawley mice (SD mice). The conditions noted are these: 50 mg/kg.
From the text: as §1

Data set [6] concerns human breast cancer cell strain MDA-MB-231. Briefly: MDA-MB-231 cell toxicity test (MTT). Type of data set: cell-based. To be noted: 48 h; for OD value: MTT 490 nm. As for the experimental part: MDA-MB-231 cells were cultured in an incubator at 37° C. with 5% CO2 saturated humidity in the RPMI-1640 complete culture medium containing inactivated fetal calf serum with volume fraction of 10%, 100 U penicillin and streptomycin. Take MDA-MB-231 cells in logarithmic phase (primary culture bottle) and discard the culture solution. […] Prepare the suspended solution of cells and adjust the cell concentration with appropriate amount of complete culture medium to 3×10^4/mL. Fed the cells into a tissue culture plate 96, with cell suspended liquid of 180 μL in each case, and put the culture plate into a cell incubator (37° C., 5% CO2) for conventional culture. When cells grew to 50%-70%, add drug liquid of different concentration. […] For DMSO solvent control group, add 20 μL of PBS containing […] and for the blank group, add 20 μL of PBS. For each drug concentration, 6 complex cases were provided. Put back the culture plate into the cell incubator, after 48 h, add 20 μL MTT (5 mg/mL) solution and continue to incubate it in the incubator for 4 h, then remove the supernatant and dry it with tissue, add 200 μL DMSO into each case and vibrate it in the rocker without light for 15 min, to allow the crystal to fully dissolve. Determine the light absorption at 490 nm with a fully automatic ELISA instrument, and calculate the average suppression rate, suppression rate (%)=(control group A490−test group A490)/control group A490), the experiment was repeated three times. Relevant analysis and Student t tests in Microsoft Excel 2003 were used, and data are presented in X±SD.

A short description of the next data set: in vivo. The conditions noted are these: in vivo, 50 mg/kg. As for the experimental part: Embodiment 5: Metabokinetic Experiment of monofructosyl-β(2,6)-Puerarin in Blood
In HPLC analysis, DIONEX was used, with chromatographic column as Discovery HS C18 ([…], 5 μm), feeding specimen volume 20 μL, column temperature 30° C., the detector was UVD170U, with detection wavelength of 254 nm, flowing phase: A, water, B, chromatographic class methanol, A:B=80:20, at flow rate of 1 mL/min.
Sprague-Dawley mice (SD mice), with weight of 180-220 g, male and female in half, provided by Medical Experiment Center of Nantong University, with production permit No.: SCXK (Su) 20080010.
SD mice were randomly divided into 2 groups of 5 each, fasting for 12 hours before experiment. Puerarin and monofructosyl-β(2,6)-puerarin were respectively dissolved in 20% 1,2-PG normal saline, and injected into mouse caudal vein at a dosage of 50 mg/kg. After injection, at t=0 min, 4 min, 7 min, 17 min, 40 min, 60 min, 120 min and 180 min, 0.5 mL of blood was taken from orbit and put into centrifugal tubes treated with liquaemin, then it was immediately separated by centrifuging at 3000 rpm for 15 min, to separate out plasma for analysis.
Plasma of 100 μL was precisely taken and put into test tube, and 400 μL of methanol sedimented protein was added, they were mixed on vortex mixer for 5 min, then centrifuged at 10000 rpm for 10 min, and the supernatant was used for HPLC analysis.
The plasma concentration of the puerarin and monofructosyl-β(2,6)-puerarin specimens prepared as per 3.2 was obtained by calculation with external reference method. The data obtained were analyzed using pharmacokinetics statistic software.

Data set [7] in a line: Solubility determination at 25° C.
Data set [8] relates to aorta vascular smooth muscle. The conditions noted are these: compared with puerarin, literature; cited from earlier work.
Setting [9] is: both, Sprague-Dawley, mouse, iv.

`O=c1c(-c2ccc(O)cc2)coc2c([C@@H]3O[C@H](CO)[C@@H](O)[C@H](O)[C@H]3O)c(O[C@@H]3O[C@H](CO)[C@@H](O)[C@H](O)[C@H]3O)ccc12` [7-O-glucoside puerarin]: the “water solubility compared with puerarin” value in data set [1] is listed as 18 times. In data set [2], the “mean retaining time (MRT) relative to puerarin” value was 2.8 times and the “plasma half-life (t1/2) relative to puerarin” value is 2 times.

For the compound `O=c1c(-c2ccc(O)cc2)coc2c(C3OC(CO)C(O)C(O)C3O)c(OC3OC(COC4OC(CO)C(O)C(O)C4O)C(O)C(O)C3O)ccc12` (stereo not drawn) [7-O-isomaltoside puerarin], in [1], the “water solubility compared with puerarin” value is given as 100 times.

Turning to `O=c1c(-c2ccc(O)cc2)coc2c([C@@H]3O[C@H](CO)[C@@H](O)[C@H](O)[C@H]3O)c(O)ccc12` [Puerarin, 7,4′-dyhydroxy-8-β-D-glucosyl isoflavone], the Average suppression rate is given as 10.65% in data set [3] (1 μmol/L); 7.52% in [3] (5 μmol/L); 9.46% in data set [3] (10 μmol/L); 10.68% in data set [3] (20 μmol/L); 22.73% in data set [3] (50 μmol/L); 30.89% in [3] (100 μmol/L). For the same compound, the Average suppression rate worked out at 36.65% in data set [3] (150 μmol/L); 54.19% in data set [3] (200 μmol/L); 10.68% in data set [6] (0.5 μmol/L); 11.67% in data set [6] (1 μmol/L); 12.43% in data set [6] (5 μmol/L); 13.77% in data set [6] (10 μmol/L). The Average suppression rate in [6] (50 μmol/L) is recorded as 24.92%; in data set [6] (100 μmol/L), 33.06%; in data set [6] (150 μmol/L) it was 47.47%; in data set [6] (200 μmol/L), 61.91%. Further, the OD value in data set [3] (1 μmol/L) stood at 0.917 ± 0.031; in data set [3] (5 μmol/L), 0.949 ± 0.023; in data set [3] (10 μmol/L), 0.929 ± 0.030; in [3] (20 μmol/L), 0.916 ± 0.056; in data set [3] (50 μmol/L) it was 0.793 ± 0.083; in data set [3] (100 μmol/L) it was 0.709 ± 0.038. Further, the OD value in data set [3] (150 μmol/L) came to 0.650 ± 0.039; in data set [3] (200 μmol/L), 0.470 ± 0.027; in [6] (0.5 μmol/L), 0.632 ± 0.056; in data set [6] (1 μmol/L), 0.624 ± 0.053; in data set [6] (5 μmol/L) it was 0.619 ± 0.090; in data set [6] (10 μmol/L), 0.610 ± 0.039. The OD value was determined as 0.531 ± 0.066 in data set [6] (50 μmol/L), 0.473 ± 0.034 in data set [6] (100 μmol/L), 0.372 ± 0.037 in data set [6] (150 μmol/L) and 0.619 ± 0.042 in data set [6] (200 μmol/L). The compound further showed a solubility in “physchem” of 5200 µg/mL (≈ 12.5 mM). For the same compound, the Heart rate is recorded as 512 ± 36 time · min^−1 with myocardio ischemia mice [4] (5 s); 469 ± 32 time · min^−1 with myocardio ischemia mice [4] (10 s); 437 ± 63 time · min^−1 in the data set with myocardio ischemia mice [4] (15 s); 411 ± 69 time · min^−1 with myocardio ischemia mice [4] (30 s); 379 ± 85 time · min^−1 in the data set with myocardio ischemia mice [4] (1 min); 379 ± 72 time · min^−1 in the data set on myocardio ischemia mice [4] (2 min). Also, the Heart rate was 384 ± 53 time · min^−1 in the data set with myocardio ischemia mice [4] (5 min), 434 ± 51 time · min^−1 in the data set with myocardio ischemia mice [4] (10 min) and 484 ± 33 time · min^−1 in the data set with myocardio ischemia mice [4] (Normal). In addition, the “T wave amplitude variation” value with myocardio ischemia mice [5] (15 s after Pit) turned out to be 0.082 ± 0.052 mv; in the data set on myocardio ischemia mice [5] (30 s after Pit), 0.114 ± 0.096 mv; in the data set with myocardio ischemia mice [5] (1 min after Pit) it was 0.118 ± 0.086 mv; in the data set on myocardio ischemia mice [5] (2 min after Pit) it was 0.132 ± 0.096 mv; in the data set with myocardio ischemia mice [5] (5 min after Pit), 0.118 ± 0.075 mv; in the data set with myocardio ischemia mice [5] (10 min after Pit) it was 0.074 ± 0.061 mv. Besides, in the data set “in vivo” (setting [9]), the mean residence time MRT inf is 20.6 min. The same compound had an MRT last in the data set “in vivo” (setting [9]) of 19.7 min. In “in vivo” (setting [9]), this compound displayed a clearance of 13 ± 3 mL/min/kg. Besides, the half-life in the data set “in vivo” (setting [9]) came out at 17 ± 3.09 min. The “AUC (0-t)” value in “in vivo” was 4096.192 ± 973.839 mg/Lxmin. In addition, the solubility in water in [1] (background statement) was 6240 µg/mL (≈ 15 mM).

`O=c1c(-c2ccc(O)cc2)coc2c([C@@H]3O[C@H](CO[C@]4(CO)O[C@H](CO[C@]5(CO)O[C@H](CO)[C@@H](O)[C@@H]5O)[C@@H](O)[C@@H]4O)[C@@H](O)[C@H](O)[C@H]3O)c(O)ccc12` [bifructosyl-β(2,6)-puerarin] registered a solubility in [7] of 280800 µg/mL (≈ 379 mM). For the same compound, the “solubility relative to puerarin” value in [7] (puerarin 5.2 g/L) was determined as 54 times.

`O=c1c(-c2ccc(O)cc2)coc2c([C@@H]3O[C@H](CO[C@H]4O[C@H](CO)[C@@H](O)[C@H](O)[C@H]4O)[C@@H](O)[C@H](O)[C@H]3O)c(O)ccc12` [glucosyl-α-(1, 6)-puerarin]: in data set [1], the “water solubility compared with puerarin” value is recorded as 14 times.

As for `O=c1c(-c2ccc(O)cc2)coc2c([C@@H]3O[C@H](CO[C@H]4O[C@H](CO)[C@@H](O[C@H]5O[C@H](CO)[C@@H](O)[C@H](O)[C@H]5O)[C@H](O)[C@H]4O)[C@@H](O)[C@H](O)[C@H]3O)c(O)ccc12` [maltosyl-α-(1,6)-puerarin], in data set [1], the “water solubility compared with puerarin” value is reported as 168 times.

As for “semi-emulsified glycosyl-α-(1,4)-puerarin”, in data set [8], the vasodilatation effect result is reported as “could produce better vasodilatation effect than puerarin”.
